Source: patent US10703748B2, “Diazanaphthalen-3-yl carboxamides and preparation and use thereof” (Samumed, LLC, priority 2017, dated 2020)

What was measured:
[1] = test system: IL-6; assay: IL-6 inhibition in LPS-stimulated human peripheral blood mononuclear cells (HTRF); settings: Homo sapiens, PBMC; for EC50: 22 h; for inhibition at 10 µM: read-out: percentage in parentheses after EC50 >10
[2] = test system: α-smooth muscle actin (aSMA) positive LL29 cells; assay: Inhibition of the fibrotic process: αSMA staining in TGF-β1 treated LL29 fibroblasts from IPF patients; settings: Homo sapiens, Fibroblast; for EC50: 96 h; for inhibition at 10 µM: read-out: percentage in parentheses after EC50 >10
[3] = target: DYRK1A kinase (Homo sapiens, UniProt Q13627); assay: DYRK1A kinase activity (Ser/Thr 18 peptide Z-lyte FRET assay); format: biochemical; settings: recombinant DYRK1A, 30 μM ATP, one hour at room temperature;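 note: kinase activity read as coumarin/fluorescein emission ratio after development step, with unphosphorylated and phosphorylated peptide forms setting 0% and 100% controls, values from dose-response curves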
Method: Representative compounds were screened using the assay procedure for DYRK1A kinase activity as described below.
Each compound was dissolved in DMSO as a 10 mM stock and used to prepare compound source plates.
This is a non-radioactive assay using fluorescence resonance energy transfer (FRET) between coumarin and fluorescein to detect kinase activity which is represented as a ratio of coumarin emission/fluorescein emission.
The mixture was allowed to incubate with the representative compounds for one hour at room temperature. All reactions were performed in duplicate. Unphosphorylated (“0% Control”) and phosphorylated (“100% control”) forms of Ser/Thr 18 served as control reactions. Additionally, an 11-point dose-response curve of Staurosporine (1 uM top) was run to serve as a positive compound control.
After incubation, Development Reagent A was diluted in Development Buffer then added to the reaction and allowed to further incubate for one hour at room temperature.
Dose-response curves were generated and inhibitory concentration (IC50) values were calculated using non-linear regression curve fit in the Dotmatics' Studies Software (Bishops Stortford, UK).

[4] = test system: SW480 colon carcinoma cells; assay: Cell viability assay (CellTiter-Glo); settings: Homo sapiens; for EC50: SW480, 96 h; for inhibition at 10 µM: SW480, read-out: percent inhibition at 10 μM
[5] = target: GSK3β kinase (Homo sapiens, UniProt P49841); assay: GSK3β kinase activity (Ser/Thr 09 peptide Z-lyte FRET assay); format: biochemical; settings: recombinant kinase, 46 μM ATP, one hour at room temperature; read-out: EC50
Chain of GSK3β kinase (P49841 whole entry): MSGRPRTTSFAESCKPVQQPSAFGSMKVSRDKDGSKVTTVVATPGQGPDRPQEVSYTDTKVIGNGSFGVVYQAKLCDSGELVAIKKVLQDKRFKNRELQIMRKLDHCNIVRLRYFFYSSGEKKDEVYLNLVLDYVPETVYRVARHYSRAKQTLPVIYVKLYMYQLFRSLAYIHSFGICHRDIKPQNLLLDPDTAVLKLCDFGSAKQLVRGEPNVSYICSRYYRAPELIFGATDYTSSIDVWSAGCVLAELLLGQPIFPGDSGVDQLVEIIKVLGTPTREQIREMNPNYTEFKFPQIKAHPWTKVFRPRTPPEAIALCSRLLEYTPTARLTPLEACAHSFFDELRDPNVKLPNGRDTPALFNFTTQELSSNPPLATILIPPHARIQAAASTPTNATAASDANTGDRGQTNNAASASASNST

[6] = test system: Wnt-responsive Sp5-Luc reporter in SW480 colon carcinoma cells; assay: Screening assay for Wnt activity (Sp5-Luc reporter gene assay); settings: Homo sapiens; for EC50: SW480; for inhibition at 10 µM: SW480, read-out: percent inhibition at 10 μM

Structure (SMILES)	EC50 [1]	EC50 [3]	EC50 [4]	EC50 [5]	EC50 [6]	inhibition at 10 µM [1]	EC50 [2]	inhibition at 10 µM [2]	inhibition at 10 µM [4]	inhibition at 10 µM [6]
CCN(CC)CC(=O)Nc1cc2cc(-c3cnn(C)c3CN3CCCCC3)cnc2cn1 [Compound 3003, 2-(Diethylamino)-N-(3-(1-methyl-5-(piperidin-1-ylmethyl)-1H-pyrazol-4-yl)-1,7-naphthyridin-6-yl)acetamide]	> 10 µM	0.067 µM	> 10 µM	1.52 µM	> 10 µM	7.3%	> 10 µM	27.8%	35.9%	33.5%
Cn1ncc(-c2cnc3cnc(NC(=O)c4ccnc(N5CCOCC5)c4)cc3c2)c1CN1CCOCC1 [Compound 3034, N-(3-(1-Methyl-5-(morpholinomethyl)-1H-pyrazol-4-yl)-1,7-naphthyridin-6-yl)-2-morpholinoisonicotinamide]	> 10 µM	0.119 µM	> 10 µM	> 10 µM	> 10 µM	9.5%	> 10 µM	31.8%	10.5%	0%
COC1CCN(CC(=O)Nc2cc3cc(-c4cn(C)nn4)cnc3cn2)CC1 [Compound 3078, 2-(4-Methoxypiperidin-1-yl)-N-(3-(1-methyl-1H-1,2,3-triazol-4-yl)-1,7-naphthyridin-6-yl)acetamide]	> 10 µM	0.207 µM	> 10 µM	0.76 µM	> 10 µM	7.9%	> 10 µM	41%	16%	11.7%
CN(C)C1CCN(c2cc(C(=O)Nc3cc4cc(-c5cn(C)nn5)cnc4cn3)ccn2)CC1 [Compound 3096, 2-(4-(Dimethylamino)piperidin-1-yl)-N-(3-(1-methyl-1H-1,2,3-triazol-4-yl)-1,7-naphthyridin-6-yl)isonicotinamide]	> 10 µM	0.119 µM	4.09 µM	> 10 µM	0.596 µM	0%	> 10 µM	32.7%		
CN1CCCN(c2cc(C(=O)Nc3cc4cc(-c5cn(C)nn5)cnc4cn3)ccn2)CC1 [Compound 3099, 2-(4-Methyl-1,4-diazepan-1-yl)-N-(3-(1-methyl-1H-1,2,3-triazol-4-yl)-1,7-naphthyridin-6-yl)isonicotinamide]	> 10 µM	0.154 µM	> 10 µM	> 10 µM	0.696 µM	0%	> 10 µM	44.4%	29.6%	
CN1CCC(N(C)c2cc(C(=O)Nc3cc4cc(-c5cn(C)nn5)cnc4cn3)ccn2)CC1 [Compound 3102, 2-(Methyl(1-methylpiperidin-4-yl)amino)-N-(3-(1-methyl-1H-1,2,3-triazol-4-yl)-1,7-naphthyridin-6-yl)isonicotinamide]	> 10 µM	0.088 µM	6.91 µM	> 10 µM	> 10 µM	0%	> 10 µM	50%		28.5%
Cn1cnnc1-c1cnc2cnc(NC(=O)C3CCN(CCC(F)(F)F)CC3)cc2c1 [Compound 3111, N-(3-(4-Methyl-4H-1,2,4-triazol-3-yl)-1,7-naphthyridin-6-yl)-1-(3,3,3-trifluoropropyl)piperidine-4-carboxamide]	> 10 µM	0.377 µM	> 10 µM	2.14 µM	> 10 µM	7.5%	> 10 µM	46.4%	16.1%	9.7%
CC(C)CN1CCC(C(=O)Nc2cc3cc(-c4nnnn4C)cnc3cn2)CC1 [Compound 3118, 1-Isobutyl-N-(3-(1-methyl-1H-tetrazol-5-yl)-1,7-naphthyridin-6-yl) piperidine-4-carboxamide]	> 10 µM	1.48 µM	> 10 µM	> 10 µM	> 10 µM	5.3%	4.91 µM		8.3%	31.2%
CO[C@H]1CC[C@H](C(=O)Nc2cc3cc(-c4nnc(C)s4)cnc3cn2)CC1 [Compound 3425, trans-4-Methoxy-N-(3-(5-methyl-1,3,4-thiadiazol-2-yl)-1,7-naphthyridin-6-yl)cyclohexane-1-carboxamide]	> 10 µM	0.157 µM	> 10 µM	2.29 µM	> 10 µM	9%	> 10 µM	19.3%	29.9%	0%
Cc1nnc(-c2cnc3cnc(NC(=O)C4CCN(C(=O)c5ccccc5)CC4)cc3c2)s1 [Compound 3439, 1-Benzoyl-N-(3-(5-methyl-1,3,4-thiadiazol-2-yl)-1,7-naphthyridin-6-yl) piperidine-4-carboxamide]	> 10 µM	0.1 µM	> 10 µM	0.463 µM	> 10 µM	12.7%	> 10 µM	14.3%	16.8%	2.1%
Cc1nnc(-c2cnc3cnc(NC(=O)CN4C5CCC4CC5)cc3c2)s1 [Compound 3446, 2-(7-Azabicyclo[2.2.1]heptan-7-yl)-N-(3-(5-methyl-1,3,4-thiadiazol-2-yl)-1,7-naphthyridin-6-yl)acetamide]	> 10 µM	2.09 µM	> 10 µM	> 10 µM	> 10 µM	5.8%	> 10 µM	16.9%	16.1%	29.9%

Second part, led by results:

EC50 [1]	EC50 [3]	EC50 [4]	EC50 [5]	EC50 [6]	Structure (SMILES)	inhibition at 10 µM [1]	EC50 [2]	inhibition at 10 µM [2]	inhibition at 10 µM [4]	inhibition at 10 µM [6]
> 10 µM	0.269 µM	> 10 µM	> 10 µM	2.28 µM	CNC(=O)c1ccc(C(=O)Nc2cc3cc(-c4cn(C)nn4)cnc3cn2)cn1 [Compound 3092, N^2-Methyl-N-(3-(1-methyl-1H-1,2,3-triazol-4-yl)-1,7-naphthyridin-6-yl) pyridine-2,5-dicarboxamide]	7.4%	> 10 µM	13.3%	10.5%	
> 10 µM	2 µM	> 10 µM	2.59 µM	> 10 µM	CC(C(=O)Nc1cc2cc(-c3cncn3C)cnc2cn1)N1CCCC1 (stereo not drawn) [Compound 3134, N-(3-(1-Methyl-1H-imidazol-5-yl)-1,7-naphthyridin-6-yl)-2-(pyrrolidin-1-yl) propanamide]	3.9%	> 10 µM	19.7%	23.8%	10.2%
> 10 µM	0.123 µM	> 10 µM	0.982 µM	> 10 µM	CC(C)OCCC(=O)Nc1cc2cc(-c3cncn3C)cnc2cn1 [Compound 3136, 3-Isopropoxy-N-(3-(1-methyl-1H-imidazol-5-yl)-1,7-naphthyridin-6-yl) propanamide]	9.8%	0.135 µM		18.4%	32%
> 10 µM	0.037 µM	> 10 µM	> 10 µM	> 10 µM	Cc1ncc(C(=O)Nc2cc3cc(-c4cnc(C)n4C)cnc3cn2)s1 [Compound 3167, N-(3-(1,2-Dimethyl-1H-imidazol-5-yl)-1,7-naphthyridin-6-yl)-2-methylthiazole-5-carboxamide]	5.4%	2.04 µM		8.1%	0%
> 10 µM	1.05 µM	> 10 µM	> 10 µM	> 10 µM	CC(C)Oc1ccc(C(=O)Nc2cc3cc(-c4cnc5n4CCNC5)cnc3cn2)cc1 [Compound 3240, 4-Isopropoxy-N-(3-(5,6,7,8-tetrahydroimidazo[1,2-a]pyrazin-3-yl)-1,7-naphthyridin-6-yl)benzamide]	10.5%	> 10 µM	15.9%	18.6%	0%
> 10 µM	0.119 µM	3.96 µM	9.99 µM	> 10 µM	Cc1ncc(-c2cnc3cnc(NC(=O)c4ccnc(N5CCN(C)CC5)c4)cc3c2)s1 [Compound 3363, 2-(4-Methylpiperazin-1-yl)-N-(3-(2-methylthiazol-5-yl)-1,7-naphthyridin-6-yl)isonicotinamide]	5.6%	> 10 µM	34.7%		32.9%
> 10 µM	0.581 µM	1.43 µM	> 10 µM	0.849 µM	CN1CCN(c2cc(C(=O)Nc3cc4cc(-c5cnc(N)s5)cnc4cn3)ccn2)CC1 [Compound 3403, N-(3-(2-Aminothiazol-5-yl)-1,7-naphthyridin-6-yl)-2-(4-methylpiperazin-1-yl)isonicotinamide]	1.8%	2.43 µM			
